The values below come from patent publication US20180064808A1, “COMBINATION THERAPY OF BISPECIFIC ANTIBODIES SPECIFIC FOR FAP AND DR5 AND CHEMOTHERAPEUTIC AGENTS” (Hoffmann-La Roche Inc., priority 2014, published 2018).

The subject of one test is HCT116. As to the kind of experiment: Combination screen CRC cell lines (CellTiter-Glo). Type of test: cell-based, human. Conditions: for IC50: 3 days; for % max. inhibition (mono): first figure of mono/combo; for % max. inhibition (combo): second figure of mono/combo. As to the method: (§1) A panel of CRC and PDAC cell lines was assessed and combination partners of potential clinical relevance for the respective tumor indications were used for evaluation of combination effects (CRC: irinotecan, oxaliplatin, 5-FU, MDM2 inhibitor (RG7388), Bcl-2 inhibitor (ABT199); PDAC: Abraxane, Paclitaxel, Gemcitabine, Doxorubicin, MDM2i (RG7388), Bc12i (ABT199), Bortezomib, Cyclopamine, PARP inhibitor (PJ34)).
(§2) Cells were seeded (numbers vary depending on the cell line) in black 96-well microplate with clear, flat bottom and incubated overnight at 37° C. and 5% CO2. After checking the adherence/confluence of cells, the medium was removed and 100 μl of fresh medium containing the corresponding compound was added to each well. A sequential dilution series (1:4) of 8 concentrations per compound (n=3) were used. Corresponding DMSO concentration and media alone were used as controls.
(§3) After incubation for 3 days at 37° C. and 5% CO2, 100 μl per well CellTiter-Glo reagent (Promega) was added to the plate. Luminescence was measured after 30 minutes agitation at room temperature. IC50-values were calculated with XL-Fit software. Each experiment with one compound was repeated at least twice.
(§4) Cells were seeded (numbers vary depending on the cell line) in black 96-well microplate with clear, flat bottom and incubated overnight at 37° C. and 5% CO2. After checking the adherence/confluence of cells, the medium was removed and 100 μl of fresh medium containing the corresponding compound or combination was added to each well.
(§5) A sequential 1:3 dilution series of 9 concentrations of Drozitumab/anti-human-Fc was done on a 96-well PP-V-bottom microplate (n=6). […] 25 μl/well of the Drozitumab/anti-human-Fc series were then transferred to the cells.
(§6) After incubation for 3 days at 37° C. and 5% CO2 100 μl per well CellTiter-Glo reagent (Promega) were given to the plates. Luminescence was measured after 30 minutes agitation at room temperature.
(§7) For each concentration of Drozitumab/anti-human-Fc and Drozitumab/anti-human-Fc+compound triplicates were done on the same plate and each experiment was repeated at least twice.
Background: In ATP-based viability assays light output follows the ATP content of the culture.

The next test has as its system SW480. The test can be described thus: Combination screen CRC cell lines (CellTiter-Glo). Type of test: cell-based. Conditions: for IC50: 3 days; for % max. inhibition (mono): first figure of mono/combo; for % max. inhibition (combo): second figure of mono/combo. As to the method: as §1, §2, §3, §4, §5, §6, §7
The subject of the next test is HT29. The test can be described thus: Combination screen CRC cell lines (CellTiter-Glo). Conditions: for IC50: 3 days; for % max. inhibition (mono): first figure of mono/combo; for Fold change IC50 (DR5 ab mono vs combo) / % max. inhibition (combo): n.s. = not significant; for % max. inhibition (combo): second figure of mono/combo. In kind it is cell-based. The procedure: as §1, §2, §3, §4, §5, §6, §7

In a further test the test system is Panc1. The test can be described thus: Combination screen PDAC cell lines (CellTiter-Glo). In kind it is cell-based. Conditions: for IC50: 3 days; for % max. inhibition (mono): first figure of mono/combo. The procedure:
as §1, §2, §3, §4, §5, §6, §7

For a further test, the system named is Aspc1. The test can be described thus: Combination screen PDAC cell lines (CellTiter-Glo). Type of test: cell-based. Conditions: for IC50: agent alone, 3 days, read-out: IC50 monotherapy; for % max. inhibition (mono): first figure of mono/combo. The procedure:
as §1, §2, §3, §4, §5, §6, §7

In the next test the test system is Bxpc3. As to the kind of experiment: Combination screen PDAC cell lines (CellTiter-Glo). Conditions: for IC50: agent alone, 3 days, read-out: IC50 monotherapy. In kind it is cell-based. As to the method: as §1, §2, §3, §4, §5, §6, §7
The test system of another test is Capan2. The test can be described thus: Combination screen PDAC cell lines (CellTiter-Glo). In kind it is cell-based. Conditions: for % max. inhibition (mono): first figure of mono/combo. As to the method: as §1, §2, §3, §4, §5, §6, §7
[1] abbreviates: Homo sapiens, HT-29, 72 h, agent alone, read-out: IC50 monotherapy.
[2] abbreviates: Homo sapiens, PANC-1, 72 h, Panc1, agent alone, read-out: IC50 monotherapy.
The mark [3] stands for this setting: Panc1, second figure of mono/combo, n.s. = not significant.
Where [4] appears, read: Aspc1, second figure of mono/combo, n.s. = not significant.
[5] abbreviates: Bxpc3, first figure of mono/combo.
The mark [6] stands for this setting: Bxpc3, second figure of mono/combo, n.s. = not significant.
[7] abbreviates: Homo sapiens, BXPC-3, 72 h, Bxpc3.
Where [8] appears, read: Capan2, second figure of mono/combo, n.s. = not significant.
[9] abbreviates: Homo sapiens, PANC-1, 72 h, Panc1, DR5 ab + Fc titrated in combination with 1x IC50 of the named compound, read-out: IC50 Combo.
The mark [10] stands for this setting: DR5 ab + Fc titrated in combination with 1x IC50 of the named compound, read-out: IC50 combo.
[11] abbreviates: agent alone, read-out: IC50 monotherapy.

Read-outs that look alike come from different tables or passages of the source.

What is called IC50 is the concentration needed to halve the response being measured. In the case of `O=c1[nH]cc(F)c(=O)[nH]1` [5-FU, 5-Fluoro-1H,3H-pyrimidine-2,4-dione], the IC50 was 2500 nM in the test on HCT116 (Homo sapiens, HCT-116, 72 h, agent alone, read-out: IC50 monotherapy); 0.002 nM in the test with SW480 (Homo sapiens, 72 h, DR5 ab + Fc titrated in combination with 1x IC50 of the named compound, n.s. = not significant, read-out: IC50 combo); 2500 nM with HT29 (setting [1]). For the same molecule, the “% max. inhibition (mono)” value in the test with HCT116 worked out at 60%; with SW480 it was 50%; in the test on HT29, 50%. In addition, the “% max. inhibition (combo)” value in the test on HCT116 is given as 90%; in the test with SW480, 65%; with HT29, 85%. Besides, the “Fold change IC50 (DR5 ab mono vs combo)” value is 70000 in the test on SW480 (n.s. = not significant) and 25 with HT29.
Regarding `CC(C)C[C@H](NC(=O)[C@H](Cc1ccccc1)NC(=O)c1cnccn1)B(O)O` [Bortezomib, [(1R)-3-methyl-1-[(2S)-3-phenyl-2-(pyrazin-2-ylformamido)propanamido]butyl]boronic acid], the IC50 amounted to 8.5 nM in the test on Panc1 (setting [2]); 30 nM with Aspc1 (Homo sapiens, 72 h, Aspc1); 10 nM in the test on Bxpc3 (setting [7]); 20 nM with Capan2 (Homo sapiens, Capan-2, 72 h, Capan2, agent alone, 3 days, read-out: IC50 monotherapy). In addition, the “Fold change IC50 (DR5 ab mono vs combo)” value in the test with Panc1 (Panc1, n.s. = not significant) was “n.s”; with Aspc1 (Aspc1, n.s. = not significant) it was “n.s”; with Bxpc3 (Bxpc3, n.s. = not significant) it was 8. For the same molecule, the “% max. inhibition (combo)” value with Panc1 (setting [3]) was “n.s”; in the test on Aspc1 (setting [4]), “n.s”; in the test with Bxpc3 (setting [6]) it was 100%; in the test with Capan2 (setting [8]), 95%. Further, the “% max. inhibition (mono)” value in the test with Bxpc3 (setting [5]) worked out at 60%; with Capan2 (Capan2), 40%.
For the molecule `CC1=C2C[C@H]3[C@@H](CC=C4C[C@@H](O)CC[C@@]43C)[C@@H]2CC[C@]12O[C@@H]1C[C@H](C)CN[C@H]1[C@H]2C` [Cyclopamine, (3β,23R)-17,23-Epoxyveratraman-3-ol], the “% max. inhibition (combo)” value is listed as “n.s” in the test on Panc1, “n.s” in the test on Aspc1, 65/95% in the test on Bxpc3 and “n.s” in the test on Capan2. The “% max. inhibition (mono)” value with Bxpc3 is listed as 65/95%.
With `Nc1ccn([C@@H]2O[C@H](CO)[C@@H](O)C2(F)F)c(=O)n1` [Gemcitabine, 4-amino-1-(2-deoxy-2,2-difluoro-β-D-erythro-pentofuranosyl)pyrimidin-2(1H)-on], the IC50 in the test on Panc1 (setting [9]) worked out at 52.9 nM; with Panc1 (setting [2]) it was 2000 nM; with Aspc1 (Homo sapiens, 72 h, Aspc1), 2000 nM; in the test with Bxpc3 (setting [7]) it was 30 nM. Also, the “% max. inhibition (mono)” value is on record as 50% in the test with Panc1 (Panc1), 25% with Aspc1 (Aspc1), 45% with Bxpc3 (setting [5]) and 35% in the test with Capan2 (Capan2). The “Fold change IC50 (DR5 ab mono vs combo)” value in the test on Panc1 (Panc1, n.s. = not significant) is given as 5; with Aspc1 (Aspc1, n.s. = not significant), 50; with Bxpc3 (Bxpc3, n.s. = not significant), 15. Further, the “% max. inhibition (combo)” value in the test with Panc1 (setting [3]) turned out to be 75%; in the test with Aspc1 (setting [4]), 55%; with Bxpc3 (setting [6]) it was 80%; with Capan2 (setting [8]), 60%.
For `CCc1c2c(nc3ccc(OC(=O)N4CCC(N5CCCCC5)CC4)cc13)-c1cc3c(c(=O)n1C2)COC(=O)[C@]3(O)CC` [Irinotecan, (S)-4,11-diethyl-3,4,12,14-tetrahydro-4-hydroxy-3,14-dioxo1H-pyrano[3′,4′:6,7]-indolizino[1,2-b]quinolin-9-yl-[1,4′bipiperidine]-1′-carboxylate], the “% max. inhibition (mono)” value in the test with HCT116 turned out to be 60%; in the test on SW480, 60%; in the test on HT29 it was 40%. The “% max. inhibition (combo)” value in the test on HCT116 was 95%; in the test on SW480, 95%; in the test on HT29, 100%. Moreover, the “Fold change IC50 (DR5 ab mono vs combo)” value is listed as “n.s” in the test with SW480 (n.s. = not significant) and 83 with HT29. Moreover, the IC50 in the test on HT29 (setting [1]) came out at 9000 nM.
`O=C1[O][Pt]2([NH][C@@H]3CCCC[C@H]3[NH]2)[O]C1=O` [Oxaliplatin, [(1R,2R)-cyclohexane-1,2-diamine](ethanedioato-O,O′)platinum(II)]: the results for the “Fold change IC50 (DR5 ab mono vs combo)” value in the test on HCT116, in the test with SW480 (n.s. = not significant) and in the test on HT29 were 4, “n.s” and 13, respectively. For the same molecule, the IC50 was 0.04 nM in the test with HCT116 (setting [10]), 5000 nM in the test on HCT116 (setting [11]), 0.2 nM in the test with HT29 (setting [10]) and 5000 nM with HT29 (setting [11]). The entries for the “% max. inhibition (mono)” value in the test with HCT116, in the test on SW480 and in the test on HT29 were 20%, 60% and 30%, respectively. For the same molecule, the results for the “% max. inhibition (combo)” value in the test on HCT116, with SW480 and in the test on HT29 were 90%, 80% and 90%, respectively.
For `CN(C)CC(=O)Nc1ccc2[nH]c(=O)c3ccccc3c2c1.Cl` [PARPi (PJ34)], the “Fold change IC50 (DR5 ab mono vs combo)” value is on record as “n.s” in the test with Panc1 (Panc1, n.s. = not significant); 17 in the test with Aspc1 (Aspc1, n.s. = not significant); 10 in the test on Bxpc3 (Bxpc3, n.s. = not significant). Moreover, the “% max. inhibition (combo)” value in the test on Panc1 (setting [3]) is “n.s”; in the test with Aspc1 (setting [4]) it was 70%; in the test on Bxpc3 (setting [6]) it was “n.s”; in the test with Capan2 (setting [8]), “n.s”. The “% max. inhibition (mono)” value with Aspc1 (Aspc1) worked out at 10%.
For the molecule `CC(=O)O[C@H]1C(=O)[C@@]2(C)[C@H]([C@H](OC(=O)c3ccccc3)[C@]3(O)C[C@H](OC(=O)[C@H](O)[C@@H](NC(=O)c4ccccc4)c4ccccc4)C(C)=C1C3(C)C)[C@]1(OC(C)=O)CO[C@@H]1C[C@@H]2O` [Paclitaxel, 5β,20-Epoxy-1,2α,4,7β,10β,13α-hexahydroxytax-11-en-9-one 4,10-diacetate 2-benzoate 13-ester with (2R,3S)-N-benzoyl-3-phenylisoserine], the figures for the IC50 in the test on Panc1 (setting [9]), in the test on Panc1 (setting [2]) and with Bxpc3 (setting [7]) were 0.03 nM, 15 nM and 250 nM, respectively. Further, the “% max. inhibition (mono)” value with Panc1 (Panc1) turned out to be 50%; in the test on Aspc1 (Aspc1) it was 30%; in the test with Bxpc3 (setting [5]), 80%; in the test with Capan2 (Capan2) it was 50%. The “Fold change IC50 (DR5 ab mono vs combo)” value is recorded as 8733 in the test with Panc1 (Panc1, n.s. = not significant); 31 in the test on Aspc1 (Aspc1, n.s. = not significant); 1 with Bxpc3 (Bxpc3, n.s. = not significant). The “% max. inhibition (combo)” value with Panc1 (setting [3]) was 70%; with Aspc1 (setting [4]), 75%; in the test on Bxpc3 (setting [6]), 100%; in the test with Capan2 (setting [8]), 80%.
As to “DR5 ab + Fc: DR5 antibody (drozitumab) + crosslinking via an anti-Fc antibody, surrogate for FAP crosslinking”, the IC50 is 0.15 nM in the test with HCT116 (setting [11]); 140 nM in the test with SW480 (setting [11]); 2.5 nM in the test with HT29 (setting [11]); 262 nM in the test on Panc1 (Panc1, agent alone, read-out: IC50 monotherapy); 5 nM in the test on Aspc1 (Aspc1); 3 nM with Bxpc3 (Bxpc3).
